Entries after “also recorded” stand apart in the source; their conditions may differ.
Assays:
[1] = test system: guinea pig ileum contractions induced by histamine; experiment: Antispasmodic activity against ileum contractions induced by histamine
Experimental: (§1) The antispasmodic activity of the studied substances was examined against guinea pig ileum contractions induced by histamine and acetylcholine.
(§2) These experiences allow to make it obvious an antihistaminic, anticholinergic or musculotrope activity. The response to the contracting agent (sub-maximum concentration) is obtained every 5 minutes before and after injection of increasing concentrations of tested products (10^-7 M to 10^-4 M). The inhibition percentage under the influence of tested products is calculated and the theoretical concentration giving 50% of inhibition is graphically determined for each experience. These values are expressed in -log CI50 (M).

[2] = biological target: T1, β2 receptors of the guinea pig trachea (Cavia porcellus, UniProt Q8K4Z4); experiment: Antagonist effect on relaxation of trachea by isoproterenol (pA2); conditions: histamine-contracted tracheal chain, read-out: β-lytic activity, pA2 trachea relaxation (converted)
T1 construct: β2 receptors of the guinea pig trachea; from tissue; host or cells: guinea pig tracheal chain contracted by histamine
T1 sequence (Q8K4Z4 whole entry): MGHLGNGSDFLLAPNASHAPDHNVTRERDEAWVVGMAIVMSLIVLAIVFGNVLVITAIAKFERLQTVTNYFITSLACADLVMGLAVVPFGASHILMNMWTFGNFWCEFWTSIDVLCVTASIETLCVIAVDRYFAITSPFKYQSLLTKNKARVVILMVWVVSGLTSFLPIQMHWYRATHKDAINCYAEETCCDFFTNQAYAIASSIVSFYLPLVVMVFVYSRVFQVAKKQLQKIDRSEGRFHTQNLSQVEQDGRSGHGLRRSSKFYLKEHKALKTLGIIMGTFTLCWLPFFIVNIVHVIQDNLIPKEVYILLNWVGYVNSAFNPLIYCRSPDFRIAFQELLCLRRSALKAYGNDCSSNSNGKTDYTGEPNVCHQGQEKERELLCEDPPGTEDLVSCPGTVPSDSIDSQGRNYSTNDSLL
Experimental: (§3) The effect on β1 cardiac receptors is measured by inhibition of the chronotropic response to noradrenaline of guinea pig auricles and of the inotrope response to isoproterenol of guinea pig left auricles which were electrically stimulated. The cardioselectivity is appreciated by measuring the antagonist effect at the level of β2 receptors of the guinea pig trachea. To this end, a tracheal chain is contracted by a maximum concentration of histamine and inhibition of relaxation by isoproterenol is measured. The values calculated for cardioselectivity are obtained by considering the difference between pA2 values of the chronotrope response and the relaxation on the one hand (1st column) and of the inotrope response and relaxation on the other hand (2nd column).

[3] = test system: β1 cardiac receptors versus β2 tracheal receptors; experiment: Cardioselectivity (auricles versus trachea); set-up: species or system guinea pig
Experimental: as §3, with “column). For these various experiences, pA2 is calculated according to the Van Rossum method (Arch. Inern. Pharmacodyn., 143, 299-330, 1963).” for “column).”

cardiac receptors = experiment: Cardioselectivity in vivo, anesthetised dog: cardiac receptors; conditions: 30 μg/kg i.v.
peripheral β2 receptors = experiment: Cardioselectivity in vivo, anesthetised dog: peripheral β2 receptors; conditions: 30 μg/kg i.v.
β1 cardiac receptors [4] = biological target: T2, β1 cardiac receptors (Cavia porcellus, UniProt H0W3H1); experiment: β-lytic activity: inhibition of inotrope response to isoproterenol of electrically stimulated left auricles (pA2); set-up: species or system guinea pig; conditions: isoproterenol, electrically stimulated left auricles; read-out: β-lytic activity, pA2 auricles inotrope response (converted)
T2 construct: chronotropic response to noradrenaline of guinea pig auricles; from tissue; host or cells: guinea pig auricles (chronotropic response); electrically stimulated guinea pig left auricles (inotropic response)
T2 sequence (H0W3H1 1-470): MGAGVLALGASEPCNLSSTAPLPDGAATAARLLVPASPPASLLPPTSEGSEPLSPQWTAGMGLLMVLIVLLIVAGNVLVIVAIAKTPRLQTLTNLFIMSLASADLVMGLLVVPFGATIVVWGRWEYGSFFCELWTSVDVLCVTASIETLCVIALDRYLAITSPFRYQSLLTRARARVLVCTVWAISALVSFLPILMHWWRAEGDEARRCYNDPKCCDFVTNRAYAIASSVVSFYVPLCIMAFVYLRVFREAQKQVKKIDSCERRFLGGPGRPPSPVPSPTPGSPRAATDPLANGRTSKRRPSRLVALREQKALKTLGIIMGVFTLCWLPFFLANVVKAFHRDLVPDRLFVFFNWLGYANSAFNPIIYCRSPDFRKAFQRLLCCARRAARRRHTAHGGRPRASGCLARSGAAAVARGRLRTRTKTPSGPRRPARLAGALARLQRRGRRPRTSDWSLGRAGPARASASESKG
Experimental: as §3

[5] = LD50 in mice, oral (Lichtfield and Wilcoxon method); format: in vivo; conditions: mouse, in vivo, po, read-out: LD50
Experimental: LD50 were determined according to the Lichtfield and Wilcoxon method (J. Pharmacol. Exp. Ther. 96, 99, 1949) and expressed in mg/kg. The products were administered to mice orally.

[6] = test system: tachycardia caused by isoprotenenol; experiment: β-lytic activity in vigile rat (antagonism of tachycardia caused by isoproterenol); format: in vivo; conditions: 10 mg/kg orally; isoproterenol 0.1 mg/kg transcutaneously
platelet agglutination = experiment: Inhibition of platelet agglutination in plasma (turbidimetric method, Thrombofax); format: cell-based; conditions: plasma rich in platelets, preincubated 4 minutes
Experimental: The measure of platelet agglutination inhibition was made according to the turbidimetric method of G. V. R. Born and M. J. Cross (J. Physiol., 168, 178, […]). The plasma rich in platelets was preincubated for 4 minutes before addition of the inducing agent, namely Thrombofax. The variations of turbidity were recorded for a period of 10 minutes with a "Chronolog" agglutinometer. The inhibition of the maximum amplitude of agglutination was measured.

[7] = test system: isolated guinea pig auricles; experiment: Chronotrope effect of the substance on isolated auricles; conditions: 10^-6 M, 20 minutes, Tyrode, 29° C.
Experimental: The β-lytic effect was searched on the chronotropic response to noradrenaline of isolated guinea pig auricles. Auricles were incubated for 20 minutes in a Tyrode solution at 29° C. in the presence of the substance to be tested at the concentration of 10^-6 M. A positive (+) or negative (-) chronotrope effect of the substance was noted using the following scores: […]

[8] = test system: chronotropic response to noradrenaline of isolated guinea pig auricles; experiment: β-lytic effect on the chronotropic response to noradrenaline of isolated auricles
Experimental: The β-lytic effect was searched on the chronotropic response to noradrenaline of isolated guinea pig auricles. Auricles were incubated for 20 minutes in a Tyrode solution at 29° C. in the presence of the substance to be tested at the concentration of 10^-6 M. A positive (+) or negative (-) chronotrope effect of the substance was noted using the following scores:
Then, the chronotrope effect of cumulative increasing concentrations of noradrenaline was recorded. The pD2 (-log CE50) value was calculated. A score of β-lytic activity of the substance was given as follows:
If the score at concentration of 10^-6 M was 3 or 4, the effect of the substance was examined at concentration of 10^-7 M and a score was recorded according to the same procedure.

β1 cardiac receptors [9] = biological target: T2, β1 cardiac receptors; experiment: β-lytic activity: inhibition of chronotropic response to noradrenaline of auricles (pA2); set-up: species or system guinea pig
Experimental: as §3

[10] = Antihypertensive activity, oral, unanesthetized spontaneously hypertensive rats; format: in vivo; conditions: 60 mg/kg oral; for Antihypertensive activity (score): spontaneously hypertensive rats
Experimental: […] Only rats having a systolic pressure of 180 to 220 mm Hg are used. Two rats are used by product. The treatments are administered without the knowledge of the person making the measure.
The antihypertensive effects were recorded according to a score followed by an index. The scoring system is as follows.
The index is calculated by multiplying the systolic pressure difference (cmHg) measured every 30 minutes after the treatment, by a coefficient of 1 to 6 corresponding to times of 30 to 180 minutes.

[11] = test system: guinea pig ileum contractions induced by acetylcholine; experiment: Antispasmodic activity against ileum contractions induced by acetylcholine
Experimental: as §1, §2

[12] = Peripheral vasodilator activity, anesthetized dog, femoral arterial circulation; format: in vivo; conditions: 30 μg/kg injected directly
Experimental: The peripheral vasodilator activity was measured on anesthetized dog at the level of femoral arterial circulation. To this end, the femoral artery the collaterals of which have been ligated is perfused at constant rate with blood taken from aorta. The perfusion pressure measured at the level of the femoral artery thus varies as a function of the resistance of the perfused area. The tested products and the corresponding solvents are directly injected at the dose of 30 μg/kg. The cardiac output being maintained constant, a vasodilation is thus measured by a decrease of the perfusion pressure. The latter is scored in comparison with the action of papaverine, considered as a reference and injected one time by group of 4 products. When interesting, the products are tested with other doses under the same conditions.
The vasodilator activity is appreciated as follows: […]

Compound | Antispasmodic activity, Hist. (-log CI50 (M)) [1] | Kb [2] | Cardioselectivity ([3]; Table III, from pA2 auricles and trachea) | times more active on β cardiac receptors than on β2 receptors ([3]; from difference of pA2 on auricles and trachea) | Cardioselectivity (in words) ([3]; guinea pig auricles vs trachea) | Blocking of stimulation of cardiac receptors (cardiac receptors) | Effect on stimulation of peripheral β2 receptors (peripheral β2 receptors) | Kb (β1 cardiac receptors [4]) | LD50 [5] | β-lytic activity in vigile rat [6] | Inhibition of platelet agglutination (platelet agglutination) | Chronotrope effect (score) [7] | β-lytic effect (score) ([8]; 10^-6 M) | β-lytic effect (score) ([8]; 10^-7 M) | Activity on β cardiac receptors (in words) (β1 cardiac receptors [9]) | Kb (β1 cardiac receptors [9]; noradrenaline, read-out: β-lytic activity, pA2 auricles chronotrope response (converted)) | Antihypertensive activity (score) [10] | Antihypertensive activity (index) ([10]; systolic pressure difference (cmHg) every 30 min multiplied by time coefficient 1 to 6) | Antispasmodic activity, Ac. Chol. (-log CI50 (M)) [11] | Peripheral vasodilator activity [12]
CC(C)NCC(O)COc1ccc(-c2nc3ccccc3[nH]2)cc1 (stereo not shown) [Compound 1, 2-[4-(3-isopropylamino-2-hydroxypropoxy)phenyl]benzimidazole] | 5.18 -log CI50 (M) | 28800 nM | 1.73 | 2140 times | important cardioselectivity; also recorded: much higher than that of metopropol and atenolol | blocks stimulation of cardiac receptors | without affecting that of peripheral β2 receptors | 35.5 nM | 2300 mg/kg | demonstrated | active | 0 (if the frequency modification was comprised between +6 and -6) | 3 (if 6.00≥pD2 ≥5.51) | 2 (if 6.40≥pD2 ≥6.01) | active β-agents on β cardiac receptors | 13.5 nM | ++++ (reduction>50 mm Hg) | 174 | 5.21 -log CI50 (M) | –
CCCCCCCCNCC(O)COc1ccc(-c2nc3ccccc3[nH]2)cc1 (stereo not shown) [Compound 2, 2-[4-(3-n-octylamino-2-hydroxypropoxy)phenyl]benzimidazole] | 6.46 -log CI50 (M) | – | – | – | – | – | – | – | > 300 mg/kg | – | active | – | – | – | – | – | 0 (reduction <10 mm Hg) | – | 6.64 -log CI50 (M) | active

— US4338330A, “Benzimidazole derivatives, their use, and compositions containing these derivatives” (Continental Pharma, priority 1979, dated 1982)
